Values of other authors as cited in US20130142849A1 (LUPIN LIMITED, priority 2010, published 2013).
Where two headings read alike, the source gives them in different places.

For `CCCCc1oc2ccc(NS(C)(=O)=O)cc2c1C(=O)c1ccc(OCCCN(CCCC)CCCC)cc1.Cl` [Dronedarone, N-{2-butyl-3-[4-(3-dibutylaminopropoxy)benzoyl]benzofuran-5-yl}methane sulfonamide, hydrochloride], the absolute oral bioavailability (administered with a high fat meal) is given as “approx. 15%” and the absolute oral bioavailability (fasting) is given as 4%.
